Assay results taken from patent US20070276011A1, “Plasminogen Activator Inhibitor-1 Inhibitor” (priority 2003, published 2007).

These compounds were tested against recombinant human PAI-1 (Homo sapiens, UniProt P05121) (assay: PAI-1 inhibitory activity, Test Method A (tPA fluorogenic substrate, Tris buffer pH8.0, 37 C)). Conditions: 25 μM test compound; Test Method A.
Chain of recombinant human PAI-1 (P05121 24-402): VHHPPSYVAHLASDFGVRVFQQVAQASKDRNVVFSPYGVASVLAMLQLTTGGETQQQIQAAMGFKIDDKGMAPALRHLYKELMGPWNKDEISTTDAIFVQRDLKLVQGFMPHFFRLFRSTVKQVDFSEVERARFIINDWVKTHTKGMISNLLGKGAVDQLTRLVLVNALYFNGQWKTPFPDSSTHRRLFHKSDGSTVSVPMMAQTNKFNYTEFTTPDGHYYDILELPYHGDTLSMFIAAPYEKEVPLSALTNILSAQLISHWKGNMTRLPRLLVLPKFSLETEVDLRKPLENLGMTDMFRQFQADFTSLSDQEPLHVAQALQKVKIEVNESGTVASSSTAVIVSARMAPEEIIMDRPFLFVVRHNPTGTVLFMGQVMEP
Type: biochemical
Experimental: To this solution, 50 μL solution of 400 μM fluogenic substrate for tPA (Pyr-Gly-Arg-MCA, Peptide Institute, Inc.) adjusted with the same buffer was added, and reacted for 30 minutes at 37° C. The reaction was stopped by adding 50 μL of 2% acetic acid. Fluorescence was measured at the excitation wavelength=360 nm, emission wavelength=460 or 465 nm using a microplate reader (SPECTRAFLUOR or GENios) by TECAN. The fluorescence intensities in the presence of the PAI-1 as the control (DMSO) or in the absence of the PAI-1 (tPA alone) were taken as 100% and 0% of PAI-1 activities, respectively, and inhibitory ratios of PAI-1 activities in the presence of the test compound were obtained.
<Composition of the Tris Buffer (pH8.0)>
For `CC1=NN(c2cc(Cl)cc(Cl)c2)C(=O)C1=Cc1cc(O)c(O)cc1O` [compound 501], the “Inhibitory Ratio at 25 μM (%)” value was greater than 99%. In the case of `O=C1SC(=Cc2ccc(O)c(O)c2)C(=O)N1Cc1cccc(Nc2ccccc2)c1` [compound 318, 5-(3,4-Dihydroxybenzylidene)-3-[3-(phenylamino)benzyl]thiazolidine-2,4-dione], the “Inhibitory Ratio at 25 μM (%)” value is reported as greater than 99%. `O=C(Nc1ccc(O)c(O)c1)c1cc(C=C2SC(=O)N(CCc3ccc(Cl)cc3)C2=O)ccc1O` [compound 377] was tested, and the “Inhibitory Ratio at 25 μM (%)” value was 81%. `COc1cc(NC(=O)c2cc(C=C3SC(=O)N(Cc4ccc(Cl)c(Cl)c4)C3=O)ccc2O)cc(C(F)(F)F)c1` [compound 451, 5-{4-hydroxy-3-[3-methoxy-5-(trifluoromethyl)phenylcarbamoyl]-benzylidene}-3-(3,4-dichlorobenzyl)thiazolidine-2,4-dione] was tested, and the “Inhibitory Ratio at 25 μM (%)” value was greater than 99%. With `COc1ccc(NC(=O)c2cc(C=C3SC(=O)N(Cc4ccc(Cl)cc4Cl)C3=O)ccc2O)cc1OC` [compound 397, 5-[4-Hydroxy-3-(3,4-dimethoxyphenylcarbamoyl)benzylidene]-3-(2,4-dichlorobenzyl)thiazolidine-2,4-dione] the “Inhibitory Ratio at 25 μM (%)” value was greater than 99%. For `COc1ccc(C=C2SC(=O)N(Cc3ccc(Cl)c(Cl)c3)C2=O)cc1O` [compound 323], the “Inhibitory Ratio at 25 μM (%)” value was 21%. With `O=C(Nc1ccc(O)nc1)c1cc(C=C2SC(=O)N(Cc3ccc(Cl)c(Cl)c3)C2=O)ccc1O` [compound 408] the “Inhibitory Ratio at 25 μM (%)” value was greater than 99%. In the case of `COc1ccc(NC(=O)c2cc(C=C3SC(=O)N(Cc4ccc(Cl)c(Cl)c4)C3=O)ccc2O)cc1OC` [compound 432, 5-[4-hydroxy-3-(3,4-dimethoxyphenylcarbamoyl)benzylidene]-3-(3,4-dichlorobenzyl)thiazolidine-2,4-dione], the “Inhibitory Ratio at 25 μM (%)” value is reported as 64%. With `COc1cc(C=C2SC(=O)N(Cc3ccc(Cl)c(Cl)c3)C2=O)cc(OC)c1OC` [compound 348] the “Inhibitory Ratio at 25 μM (%)” value was 44%. With `COC(=O)c1cc(C=C2SC(=O)N(Cc3ccc(Cl)cc3Cl)C2=O)cc(O)c1O` [compound 341, 5-[3,4-Dihydroxy-5-(methoxycarbonyl)benzylidene]-3-(2,4-dichlorobenzyl)thiazolidine-2,4-dione] the “Inhibitory Ratio at 25 μM (%)” value was greater than 99%. For `COc1ccc(NC(=O)c2cc(C=C3SC(=O)N(Cc4ccc(Cl)c(Cl)c4)C3=O)ccc2O)cn1` [compound 407, 5-{4-hydroxy-3-[(2-methoxypyridin-5-yl)carbamoyl]benzylidene}-3-(3,4-dichlorobenzyl)thiazolidine-2,4-dione], the “Inhibitory Ratio at 25 μM (%)” value was 97%. In the case of `COc1cccc(NC(=O)c2cc(C=C3SC(=O)N(Cc4ccc(Cl)c(Cl)c4)C3=O)ccc2O)c1` [compound 355, 5-[4-hydroxy-3-(3-methoxyphenylcarbamoyl)benzylidene]-3-(3,4-dichlorobenzyl)thiazolidine-2,4-dione], the “Inhibitory Ratio at 25 μM (%)” value is reported as greater than 99%. `O=C(Cc1ccccc1)Nc1ccc(CN2C(=O)SC(=Cc3cccc(O)c3O)C2=O)cc1` [compound 313, 5-(2,3-Dihydroxybenzylidene)-3-[4-(phenylacetylamino)benzyl]-thiazolidine-2,4-dione] was tested, and the “Inhibitory Ratio at 25 μM (%)” value was 73%. `COc1ccc(C=C2SC(=O)N(Cc3ccc(Cl)c(Cl)c3)C2=O)cc1NC(=O)c1ccc(O)c(O)c1` [compound 359, 5-[4-Methoxy-3-(3,4-dihydroxybenzoylamino)benzylidene]-3-(3,4-dichlorobenzyl)thiazolidine-2,4-dione] was tested, and the “Inhibitory Ratio at 25 μM (%)” value was greater than 99%. For `O=C(O)c1ccc(N2N=C(c3cc(Br)ccc3O)C(=Cc3ccc(Cl)c(Cl)c3)C2=O)cc1` [Compound No. 564, 4-(3,4-Dichlorobenzylidene)-1-(4-carboxyphenyl)-3-(2-hydroxy-5-bromophenyl)-2-pyrazolin-5-one], the “Inhibitory Ratio at 25 μM (%)” value was 96%. `COc1ccc(Oc2ccc([N+](=O)[O-])c(C=C3C(=O)N(c4ccc(Cl)c(Cl)c4)N=C3C(C)C)c2)cc1OC` [Compound No. 563, 4-[2-Nitro-5-(3,4-dimethoxyphenoxy)benzylidene]-1-(3,4-dichlorophenyl)-3-isopropyl-2-pyrazolin-5-one] was tested, and the “Inhibitory Ratio at 25 μM (%)” value was 62%. For `CCOC1=NN(c2ccc([N+](=O)[O-])cc2)C(=O)C1=Cc1cc(C=Cc2ccccc2)ccc1OC` [compound 537], the “Inhibitory Ratio at 25 μM (%)” value was 66%. In the case of `COC(=O)c1cc(C=C2SC(=O)N(Cc3ccc(Cl)c(Cl)c3)C2=O)cc(OC)c1O` [compound 343, 5-[3-methoxy-4-hydroxy-5-(methoxycarbonyl)benzylidene]-3-(3,4-dichlorobenzyl)thiazolidine-2,4-dione], the “Inhibitory Ratio at 25 μM (%)” value is reported as 71%. In the case of `COC(=O)c1cc(C=C2SC(=O)N(Cc3ccc(Cl)c(Cl)c3)C2=O)cc(O)c1O` [compound 344], the “Inhibitory Ratio at 25 μM (%)” value is reported as greater than 99%. With `CC(C)C1=NN(c2ccc(Cl)c(Cl)c2)C(=O)C1=Cc1cc(O)ccc1O` [compound 519] the “Inhibitory Ratio at 25 μM (%)” value was 80%. `CCN(CC)c1ccc(O)c(C=C2C(=O)N(c3ccc(Cl)c(Cl)c3)N=C2C(C)C)c1` [compound 560] was tested, and the “Inhibitory Ratio at 25 μM (%)” value was greater than 99%. With `COc1ccc(-c2cc(C=C3SC(=O)N(Cc4ccc(Cl)c(Cl)c4)C3=O)ccc2OC)cc1` [compound 448, 5-[4-Methoxy-3-(4-methoxyphenyl)benzylidene]-3-(3,4-dichlorobenzyl)thiazolidine-2,4-dione] the “Inhibitory Ratio at 25 μM (%)” value was 51%. With `O=C(Nc1cc(Cl)ccc1C(=O)O)c1cc(C=C2SC(=O)N(Cc3ccc(Cl)c(Cl)c3)C2=O)ccc1O` [compound 458] the “Inhibitory Ratio at 25 μM (%)” value was greater than 99%. In the case of `O=C(Nc1ccc(O)c(O)c1)c1cc(C=C2SC(=O)N(Cc3cc(F)cc(F)c3)C2=O)ccc1O` [compound 386], the “Inhibitory Ratio at 25 μM (%)” value is reported as 98%. `O=C1SC(=Cc2cc(O)c3c(c2)OCO3)C(=O)N1Cc1ccc(Cl)c(Cl)c1` [compound 324] was tested, and the “Inhibitory Ratio at 25 μM (%)” value was 65%. With `O=C1SC(=Cc2cc(C=Cc3ccccc3)ccc2O)C(=O)N1Cc1ccc(Cl)c(Cl)c1` [compound 322, 5-(2-Hydroxy-5-styrylbenzylidene)-3-(3,4-dichlorobenzyl)thiazolidine-2,4-dione] the “Inhibitory Ratio at 25 μM (%)” value was 89%. In the case of `COc1ccc(NC(=O)c2cc(C=C3SC(=O)N(Cc4cccc(Oc5ccccc5)c4)C3=O)ccc2O)cc1OC` [compound 399, 5-[4-Hydroxy-3-(3,4-dimethoxyphenylcarbamoyl)benzylidene]-3-(3-phenoxybenzyl)thiazolidine-2,4-dione], the “Inhibitory Ratio at 25 μM (%)” value is reported as greater than 99%.

Same assay, conditions: 50% inhibitory concentration of PAI-1 activity, according to the aforementioned method
`CC1=NN(c2cc(Cl)cc(Cl)c2)C(=O)C1=Cc1cc(O)c(O)cc1O` [compound 501] gave an IC50 of 810 nM.

Same assay, conditions: test compound 25 μM; Test Method A
In the case of `COC(=O)c1cccc(N2N=C(c3ccccc3)C(=Cc3ccc(Br)o3)C2=O)c1` [compound 194], the “Inhibitory Ratio at 25 μM (%)” value is reported as 84%. With `O=C1SC(=Cc2ccc(O)c(O)c2)C(=O)N1Cc1ccc(C=Cc2cc(C(F)(F)F)cc(C(F)(F)F)c2)cc1` [compound 58, 5-(3,4-Dihydroxybenzylidene)-3-{4-[3,5-bis(trifluoromethyl)styryl]-benzyl}thiazolidine-2,4-dione] the “Inhibitory Ratio at 25 μM (%)” value was 95%. `CC1=NN(c2ccc(Cl)c(C(=O)O)c2)C(=O)C1=Cc1ccc(-c2ccccc2Cl)o1` [compound 188] was tested, and the “Inhibitory Ratio at 25 μM (%)” value was 35%. In the case of `CC(C)C1=NN(c2cc(C(F)(F)F)cc(C(F)(F)F)c2)C(=O)C1=Cc1ccc(O)c(O)c1` [compound 118, 4-(3,4-Dihydroxybenzylidene)-1-[3,5-bis(trifluoromethyl)phenyl]-3-isopropyl-2-pyrazolin-5-one], the “Inhibitory Ratio at 25 μM (%)” value is reported as greater than 99%. For `CC1=NN(c2cccc(Cl)c2)C(=O)C1=Cc1cc(O)c(O)cc1O` [compound 158], the “Inhibitory Ratio at 25 μM (%)” value was 72%. `CCOC1=NN(c2ccc([N+](=O)[O-])cc2)C(=O)C1=Cc1ccc(O)c(O)c1` [compound 116] was tested, and the “Inhibitory Ratio at 25 μM (%)” value was greater than 99%. For `COC(=O)c1cccc(N2N=C(C(F)(F)F)C(=Cc3ccc(SCCN(C)C)s3)C2=O)c1` [compound 178], the “Inhibitory Ratio at 25 μM (%)” value was 40%. `O=C1SC(=Cc2ccc(O)c(O)c2)C(=O)N1Cc1ccc(Oc2ccccc2)cc1` [compound 60, 5-(3,4-Dihydroxybenzylidene)-3-(4-phenoxybenzyl)thiazolidine-2,4-dione] was tested, and the “Inhibitory Ratio at 25 μM (%)” value was greater than 99%. `O=C(O)c1cccc(N2N=C(C(F)(F)F)C(=Cc3ccc(-c4cc(Cl)cc(Cl)c4)o3)C2=O)c1` [compound 218] was tested, and the “Inhibitory Ratio at 25 μM (%)” value was 95%. `COC(=O)c1cccc(-c2ccc(C=C3C(=O)N(c4cccc(C(=O)O)c4)N=C3C)o2)c1` [compound 189] was tested, and the “Inhibitory Ratio at 25 μM (%)” value was 21%. With `O=C1SC(=Cc2cc(O)c(O)c(O)c2)C(=O)N1Cc1cccc([N+](=O)[O-])c1` [compound 52] the “Inhibitory Ratio at 25 μM (%)” value was 50%. For `O=C1SC(=Cc2cc(O)cc(O)c2)C(=O)N1Cc1ccc(Cl)c(Cl)c1` [compound 40], the “Inhibitory Ratio at 25 μM (%)” value was greater than 99%. For `O=C1SC(=Cc2cccc(O)c2O)C(=O)N1Cc1cccc(Cl)c1` [compound 30, 5-(2,3-Dihydroxybenzylidene)-3-(3-chlorobenzyl)thiazolidine-2,4-dione], the “Inhibitory Ratio at 25 μM (%)” value was greater than 99%. With `CC(C)(C)c1cc(CN2C(=O)SC(=Cc3ccc(O)c(O)c3)C2=O)cc(C(C)(C)C)c1O` [compound 14] the “Inhibitory Ratio at 25 μM (%)” value was greater than 99%. With `CC1=NN(c2cccc(C(F)(F)F)c2)C(=O)C1=Cc1cccc(O)c1` [compound 122] the “Inhibitory Ratio at 25 μM (%)” value was 35%. In the case of `O=C(CN1C(=O)SC(=Cc2ccc(O)c(O)c2)C1=O)c1ccc(Cl)cc1Cl` [compound 92, 5-(3,4-Dihydroxybenzylidene)-3-[(2,4-dichlorobenzoyl)-methyl]thiazolidine-2,4-dione], the “Inhibitory Ratio at 25 μM (%)” value is reported as greater than 99%. With `CC(C)C1=NN(c2cccc(C(=O)O)c2)C(=O)C1=Cc1ccc(-c2cc(Cl)cc(Cl)c2)o1` [compound 211] the “Inhibitory Ratio at 25 μM (%)” value was 31%. For `O=C1C(=Cc2cc(O)c(O)c(O)c2)C(c2ccccc2)=NN1c1cc(Cl)cc(Cl)c1` [compound 131], the “Inhibitory Ratio at 25 μM (%)” value was greater than 99%. For `CC(C)(C)C1=NN(c2ccccc2)C(=O)C1=Cc1ccc(O)c(O)c1` [compound 133], the “Inhibitory Ratio at 25 μM (%)” value was 55%.
